From paper PMC8829872 (Cancer chemotherapy and pharmacology, 2022)
Where two headings read alike, the source gives them in different places.

Legend:
[1] = Intestinal contribution to oral bioavailability (hepatic and gut contributions calculated from IV PK); assay type: in vivo, mice; conditions: 10 mg/kg IV
Procedure: The contribution of gut to oral bioavailability was estimated by calculating the contribution of liver processes to bioavailability from IV data and stripping this contribution from the observed bioavailabilities. Assuming IV drug clearance was restricted to hepatic processes, the predicted bioavailability based solely on liver processes, FH, was calculated from IV PK. […] Fe was derived from the amount of drug measured in urine (Ae) and the total amount of drug administered, see Eq. (7). ClBlood was defined by multiplying the observed plasma clearance (Clplasma) by the ratio of plasma exposure (AUCplasma) to total blood exposure (AUCBlood), see Eq. (8). AUCBlood was calculated using hematocrit (HCT) to construct total blood exposure contributions from exposure in RBC (AUCRBC) and plasma, see Eq. (9).

[2] = generally reported, cited from earlier work
[3] = 1 h after 25 mg/kg IP; cited from earlier work
[4] = cited from earlier work; for dose proportionality in exposure: single agent
[5] = in vivo; conditions: Balb/c, mouse
Procedure: The vehicle for all groups was 10% DMSO, 40% propylene glycol, and 50% dH2O. […] Mice were euthanized by CO2 inhalation and the following tissues collected: blood, liver, kidney, lung, skeletal muscle, and brain.
Duplicate standard curves with calibrators consisting of 0.3, 1, 3, 10, 30 100, 300, and 1,000 ng/mL, in addition to blank plasma, were prepared fresh on days of analysis using control Balb/c mouse plasma (Innovative Research, Novi, MI). QCs were prepared in bulk and stored at −80 °C, with concentrations of 0.8 (QCL), 20 (QCM), and 800 ng/mL (QCH). […] The injection volume was 3 μL. […] Curve fitting was accomplished through linear regression with 1/y^2 weighting. Semi-quantitation of metabolites was accomplished by reporting IS normalized metabolite response.
Noncompartmental (NC) PK was determined using GraphPad Prism (San Diego, CA) using the linear trapezoidal method and Bailer method of AUC determination for estimates of exposure in plasma, RBC, tumors, and tissues [24]. PK parameters or analysis requiring dose were adjusted for the actual dose as determined using measurements of dosing solution. Dose-normalized plasma exposures, Cmax and AUC, of PO treated groups of the dose linearity studies were compared using ANOVA tests to determine dose linearity.
Tissue partition coefficients (PTissue) and RBC partitioning (PRBC) were calculated using Eq. (1) and tested among PO treated groups using ANOVA tests.
The resulting concentrations were multiplied by the volume or weight to convert to a total amount and then divided by 3 to account for the number of mice per cage. These amounts were then divided by the average total amount of drug administered to calculate the percent excreted by urine and feces, see Eq. (2). Renal clearance (ClR) was calculated by dividing the excreted amount by the plasma AUC, see Eq. (3) [25].
When available, plasma metabolite data was used to determine semi-quantitative exposure as well as metabolic ratios, using Eq. (4). The MR among PO treated groups in the dose linearity studies were compared using ANOVA testing. Metabolite presence was also analyzed in urine and feces.

**Q.** For `C[C@@H]1COCCN1c1cc(C2([S@](C)(=N)=O)CC2)nc(-c2cc[nH]c3nccc2-3)n1` [AZD6738], which ClBlood [1] is on record?
**A.** 0.550 mL/min

**Q.** And the “Amount excreted, Ae” value ([1]; urine)?
**A.** 4.00 µg

**Q.** And the “Fraction excreted, Fe” value ([1]; urine)?
**A.** 0.0191

**Q.** What about the clearance ([1]; Balb/c, plasma, average mouse size 18.3 g, read-out: ClPlasma) of the same compound?
**A.** 0.634 mL/min

**Q.** And the “cell based IC50s” value [2]?
**A.** below 413 ng/mL

**Q.** And the IC50 ([2]; read-out: cell based IC50s)?
**A.** < 1000 nM

**Q.** What about the brain concentration [3] of the same compound?
**A.** ~200 ng/mL

**Q.** And the dose proportionality ([4]; BID with olaparib and durvalumab, 60 to 240 mg)?
**A.** dose proportionality

**Q.** What about the “dose limiting toxicity (DLT)” value ([4]; clinical studies) of the same compound?
**A.** thrombocytopenia

**Q.** What about the “concentration at which monocyte and thrombocyte decreases occurred (PK-PD model)” value ([4]; clinical, increased up to 10 μg/mL) of the same compound?
**A.** 2500 ng/mL

**Q.** What about the “dose proportionality in exposure” value ([4]; 20 to 40 mg BID) of the same compound?
**A.** greater than proportional increases

**Q.** And the “dose proportionality in exposure” value ([4]; 80 to 240 mg BID)?
**A.** approximate dose proportionality

**Q.** What about the half-life [5] of the same compound?
**A.** 1.57 to 2.17 h

**Q.** What about the AUC(0-inf) ([5]; iv, 10 mg/kg) of the same compound?
**A.** 5620 ng·h/mL

**Q.** What about the CL renal ([5]; iv, 10 mg/kg) of the same compound?
**A.** 0.661 mL/min/kg

**Q.** What about the Cmax ([5]; iv, 10 mg/kg) of the same compound?
**A.** 7040 ng/mL

**Q.** And the Tmax ([5]; iv, 10 mg/kg)?
**A.** 0.0833 h

**Q.** And the Vd ([5]; iv, 10 mg/kg)?
**A.** 4.92 L/kg

**Q.** And the half-life ([5]; iv, 10 mg/kg)?
**A.** 1.64 h

**Q.** What about the AUC(0-inf) ([5]; po, 2 mg/kg) of the same compound?
**A.** 423 ng·h/mL

**Q.** And the CL renal ([5]; po, 2 mg/kg)?
**A.** 1.97 mL/min/kg

**Q.** What about the Cmax ([5]; po, 2 mg/kg) of the same compound?
**A.** 160 ng/mL

**Q.** And the Tmax ([5]; po, 2 mg/kg)?
**A.** 1 h

**Q.** What about the bioavailability ([5]; po, 2 mg/kg) of the same compound?
**A.** 45.7%

**Q.** What about the half-life ([5]; po, 2 mg/kg) of the same compound?
**A.** 1.73 h

**Q.** And the AUC(0-inf) ([5]; po, 7.5 mg/kg)?
**A.** 2400 ng·h/mL

**Q.** And the CL renal ([5]; po, 7.5 mg/kg)?
**A.** 1.88 mL/min/kg

**Q.** What about the Cmax ([5]; po, 7.5 mg/kg) of the same compound?
**A.** 1460 ng/mL

**Q.** And the Tmax ([5]; po, 7.5 mg/kg)?
**A.** 0.25 h

**Q.** And the bioavailability ([5]; po, 7.5 mg/kg)?
**A.** 58.8%

**Q.** And the half-life ([5]; po, 7.5 mg/kg)?
**A.** 2.17 h

**Q.** What about the AUC(0-inf) ([5]; po, 20 mg/kg) of the same compound?
**A.** 9630 ng·h/mL

**Q.** And the CL renal ([5]; po, 20 mg/kg)?
**A.** 1.53 mL/min/kg

**Q.** What about the Cmax ([5]; po, 20 mg/kg) of the same compound?
**A.** 4960 ng/mL

**Q.** And the Tmax ([5]; po, 20 mg/kg)?
**A.** 0.25 h

**Q.** And the bioavailability ([5]; po, 20 mg/kg)?
**A.** 85.5%

**Q.** And the half-life ([5]; po, 20 mg/kg)?
**A.** 1.57 h

**Q.** What about the AUC(0-inf) ([5]; po, 75 mg/kg) of the same compound?
**A.** 41600 ng·h/mL

**Q.** And the CL renal ([5]; po, 75 mg/kg)?
**A.** 1.14 mL/min/kg

**Q.** What about the Cmax ([5]; po, 75 mg/kg) of the same compound?
**A.** 12000 ng/mL

**Q.** And the Tmax ([5]; po, 75 mg/kg)?
**A.** 0.25 h

**Q.** And the bioavailability ([5]; po, 75 mg/kg)?
**A.** 95.2%

**Q.** What about the half-life ([5]; po, 75 mg/kg) of the same compound?
**A.** 1.93 h
